For data set [1], the system named is stallion sperm cells. The class given is cell-based. The procedure:
In a first experiment (data set out to the right of Exp 1 in Tables 1-6), semen was collected from two stallions via artificial vagina. The motility of each ejaculate was determined subjectively via light microscope and the semen was diluted to a final concentration of about 5×10^8 motile sperm cells/ml with E-Z freezin LE (Animal Reproduction Systems, Chino, Calif.) and combined to one each of thirteen 0.25 mL semen samples was an amount of a corresponding one of thirteen adjuvants: (1) no addition-control (“untreated control semen sample); 2) about 5% cyclodextrin; 3) about 2.5% cyclodextrin; 4) about 5% pulp oil in cyclodextrin; 5) about 2.5% pulp oil in cyclodextrin; 6) about 5% seed oil in cyclodextrin; 7) about 2.5% seed oil in cyclodextrin; 8) emulsion of about 5% seed oil, 9) emulsion of about 2.5% seed oil, 10) emulsion of about 5% pulp oil, 11) emulsion of about 2.5% pulp oil, 12) about 5% juice, and 13) about 2.5% juice. Throughout this description the amount of extract is expressed as a percentage volume to volume (v/v) unless otherwise indicated.
Following dilution of each semen sample with E-Z freezin LE and combining the diluted semen with the corresponding adjuvant (“treated semen samples”), the treated semen samples were cooled by reducing the temperature at a controlled rate to about 5° C. […]

Data set [2] concerns stallion sperm cells. The class given is cell-based. The procedure:
In a second experiment (data set out to the right of Exp 2 in Tables 5-6), semen was collected from one stallion via artificial vagina. The motility of the ejaculate was determined objectively using a Hamilton-Thorn sperm analyzer with a 37° C. stage warmer. The assessed data included percentage of motile sperm cells, progressive motile sperm cells, as well as average path velocity, straight line velocity, and straightness of motile sperm cells in accordance with conventional operating procedures for the instrument. […]
Following dilution of each semen sample with E-Z Mixin CST and the corresponding adjuvant, the treated semen samples were cooled by reducing the temperature at a controlled rate to about 4° C. Motility was evaluated subjectively via light microscope immediately at 24, 38, and 72 h after being held at about 4° C. […]
This is another data set of the same source.

Where two headings read alike, the source gives them in different places.

As to cyclodextrin, the “effect on sperm cells (spermicidal)” value with stallion sperm cells [1] and in the data set with stallion sperm cells [2] was “spermicidal” throughout.
